Drawing on patent publication USRE47193E1, “Selectively substituted quinoline compounds” (EISAI R&D MANAGEMENT CO., LTD., priority 2013, dated 2019), this text covers IC50 for 39 molecules.

Assay [1] concerns Human TLR7/8. The assay is described as follows: Human PBMC cell-based assay, TLR7/8 stimulus (RNA-Ig), cytokine ELISA. To be noted: primary human PBMC assay, TLR7/8 potency; ligand not given; read-out: Human PBMCs IC50. In outline: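 Healthy-donor human PBMC, 2×10^5 cells/well (1×10^5 in later assay), pre-treated 30 min with compound (0.1% DMSO). Stimulated 20 h at 37 °C with RNA-Ig: 26-mer U1 snRNA stem loop IV phosphorothioate RNA at 2.5 μM plus anti-ssDNA antibody (1:25 or 1 ug/ml). Supernatant cytokines by ELISA.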

Assay [2] addresses T1, human TLR8 (Homo sapiens, UniProt Q9NR97).
T1 construct: host or cells: HEK-293, then stably transfected with pNiFty2(NF-kappaB)-luciferase reporter
T1 sequence (Q9NR97 27-1041): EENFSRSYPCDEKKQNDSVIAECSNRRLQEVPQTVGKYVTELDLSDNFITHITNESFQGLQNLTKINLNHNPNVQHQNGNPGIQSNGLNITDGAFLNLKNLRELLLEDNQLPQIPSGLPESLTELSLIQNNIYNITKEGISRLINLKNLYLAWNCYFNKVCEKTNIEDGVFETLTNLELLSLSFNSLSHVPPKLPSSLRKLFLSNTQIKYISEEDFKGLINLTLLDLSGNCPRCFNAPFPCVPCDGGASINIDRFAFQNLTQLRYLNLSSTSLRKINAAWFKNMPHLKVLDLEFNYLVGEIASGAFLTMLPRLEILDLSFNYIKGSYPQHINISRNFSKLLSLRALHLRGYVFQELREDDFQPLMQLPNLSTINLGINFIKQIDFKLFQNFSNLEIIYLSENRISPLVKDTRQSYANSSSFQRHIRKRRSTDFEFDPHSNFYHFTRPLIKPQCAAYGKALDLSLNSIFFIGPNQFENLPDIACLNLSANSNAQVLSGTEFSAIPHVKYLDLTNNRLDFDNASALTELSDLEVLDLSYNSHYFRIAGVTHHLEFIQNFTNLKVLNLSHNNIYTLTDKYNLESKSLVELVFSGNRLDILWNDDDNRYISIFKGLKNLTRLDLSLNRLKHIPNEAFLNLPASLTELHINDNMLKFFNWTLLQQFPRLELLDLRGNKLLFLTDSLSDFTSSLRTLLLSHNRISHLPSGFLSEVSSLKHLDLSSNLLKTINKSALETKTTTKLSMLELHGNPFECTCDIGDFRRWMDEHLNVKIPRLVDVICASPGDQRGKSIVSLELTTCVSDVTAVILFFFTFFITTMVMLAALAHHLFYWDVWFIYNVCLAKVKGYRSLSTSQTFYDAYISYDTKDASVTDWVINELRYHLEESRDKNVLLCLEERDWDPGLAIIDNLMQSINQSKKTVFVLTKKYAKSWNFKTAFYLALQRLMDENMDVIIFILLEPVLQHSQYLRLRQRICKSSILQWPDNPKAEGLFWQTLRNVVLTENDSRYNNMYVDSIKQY
The assay can be described thus: HEK-293 human TLR8 NF-kappaB luciferase reporter assay (CL097). The class given is cell-based. To be noted: HEK-293 assay format; read-out: HEK/hTLR8 IC50. How it is done:
Effects on mouse TLR7 were also compared. Cells were stimulated overnight with TLR7/8 agonist CL097 at pre-determined ED70-80: 3 ug/ml for HEK-hTLR7, 1.5 ug/ml for HEK-mTLR7 and 12 ug/ml for HEK-hTLR8, before reading luminescence intensity. Three tests were performed and IC50 value was determined using Graphpad Prism 6 nonlinear regression curve fit.
HEK-293 cells (ATCC) were engineered to stably express a NF-kappaB transcription factor inducible E-selectin (ELAM-1) luciferase reporter derived from the plasmid pGL3 (Promega) containing base pairs −2241 bp to −254 bp from the promoter of the human E-selectin gene (Accession No. NM_000450). These cells were then subsequently engineered to stably and individually express human TLR4, TLR7 or TLR9 full-length ORF cDNAs. Human TLR4 cDNA (Accession No. NM_138554) was cloned into pcDNA 3.0 expression vector (Invitrogen). TLR4 transfected cells were also engineered to express human MD-2 co-receptor [MD-2 cDNA (Accession No. NM_015364) was cloned into the pEF-BOS vector] and were supplemented with 10 nM soluble CD14 (R&D Systems) in the media to optimize LPS responsiveness. Human TLR9 cDNA (Accession No. NM_017442) was cloned into the pBluescript II KS vector (Agilent). Human TLR7 cDNA (Accession No. NM_016562) was obtained from OriGene. HEK-293 cells stably expressing human TLR8 (Accession No. NM_138636) or mouse TLR7 (Accession No. NM_133211) were purchased from InvivoGen and were then stably transfected with pNiFty2(NF-kappaB)-luciferase reporter plasmid (InvivoGen). Each cell type was plated in Dulbecco's modified Eagle's medium (DMEM) containing 10% fetal bovine serum (FBS) at a density of 2.22×10^5 cells/ml into a 384-well plate and incubated for 2 days at 37° C., 5% CO2. Varying concentrations of antagonist compounds were then added. Cells were then incubated for another 30 minutes before adding the appropriate TLR agonist as follows (final concentrations indicated): lipopolysaccharide (LPS; Sigma) at 10 ng/ml for TLR4, CL097 (InvivoGen) at 3 ug/ml for human TLR7 and TLR8 and mouse TLR7, and CvG-2006-2A [sequence: […] (SEQ ID NO: 1) with phosphorothioate backbone, synthesized by Sigma-Aldrich] at 0.6 uM for TLR9.

`CC(=O)N1CCN(C[C@H]2CN(c3ccc(C#N)c4ncccc34)C[C@@H](C)O2)CC1` [ER-887261]: the values for the IC50 in assay [1] and in assay [2] were 120 nM and 77 nM, respectively.

As for `C[C@@H]1CN(c2ccc(C#N)c3ncccc23)C[C@H](CN2CCC[C@@H](O)C2)O1` [ER-886949], the IC50 was found to be 32 nM in assay [1] and 78 nM in assay [2].

For `C[C@@H]1CN(C[C@H]2CN(c3ccc(C#N)c4ncccc34)C[C@@H](C)O2)[C@H](C)CN1` [ER-887271], the results for the IC50 in assay [1] and in assay [2] were 2 nM and 1.6 nM, respectively.

For `C[C@@H]1CN(c2ccc(C#N)c3ncccc23)C[C@H](CN2CCC(C)(C)C2)O1` [ER-886869], the IC50 in assay [1] was 112 nM; in assay [2], 161 nM.

For `C[C@@H]1CN(c2ccc(C#N)c3ncccc23)C[C@H](CNc2ccc(-c3ccccc3)cn2)O1` [ER-887538], the IC50 in assay [1] came out at 48 nM; in assay [2], 85 nM.

For the molecule `C[C@@H]1CN(c2ccc(C#N)c3ncccc23)C[C@H](CNC2CCCCCC2)O1` [ER-887444], in assay [2], the IC50 was 193 nM.

For the molecule `C[C@@H]1CN(c2ccc(C#N)c3ncccc23)C[C@H](CN2CCC(c3ccccc3)C2)O1` (some centres unmarked) [ER-886854], the IC50 in assay [1] is 20 nM; in assay [2] it was 46 nM.

As to `C[C@@H]1CN(c2ccc(C#N)c3ncccc23)C[C@H](CNC(=O)C(C)(C)C)O1` [ER-879713], the IC50 in assay [2] is 80 nM.

In the case of `COc1ccnc(NC[C@H]2CN(c3ccc(C#N)c4ncccc34)C[C@@H](C)O2)c1` [ER-886858], the IC50 in assay [1] is 15 nM; in assay [2], 2 nM.

Turning to `CC1CN(c2ccc(C#N)c3ncccc23)CC(CN2CCC(F)CC2)O1` (centres unmarked) [ER-887144], the IC50 in assay [1] was determined as 63 nM; in assay [2], 48 nM.

As for `C[C@@H]1CN(c2ccc(C#N)c3ncccc23)C[C@H](CN2CCC(c3ccccc3)CC2)O1` [ER-887143], the IC50 came out at 13 nM in assay [1] and 148 nM in assay [2].

As to `CCCCC(O)C1CN(c2ccc(C#N)c3ncccc23)CC(C)O1` (single isomer, unassigned) [ER-886530], the IC50 in assay [2] was 5 nM.

For `COC[C@H]1CN(c2ccc(C#N)c3ncccc23)C[C@@H](C)O1` [ER-885612], the IC50 in assay [1] came to 614 nM; in assay [2] it was 55 nM.

On to `COc1ccc(N2C[C@@H](C)O[C@@H](C)C2)c2cccnc12` [ER-885113], for which the IC50 in assay [2] is 11 nM.

As to `CC1CN(c2ccc(C#N)c3ncccc23)CC(C(O)C2CCCCC2)O1` (single isomer, unassigned) [ER-886533], the IC50 in assay [2] amounted to 14 nM.

On to `C[C@@H]1CN(c2ccc(C#N)c3ncccc23)C[C@H](CN2CC(NC(=O)c3ccccc3)C2)O1` [ER-894594], for which the IC50 was found to be 87 nM in assay [1] and 116 nM in assay [2].

`CCN(CC)C[C@H]1CN(c2ccc(C#N)c3ncccc23)C[C@@H](C)O1` [ER-886508]: the IC50 in assay [2] came out at 186 nM.

As to `CC[C@@H]1CN(c2ccc(C#N)c3ncccc23)C[C@H](COCc2ccccc2)O1` [ER-886355], the IC50 was 177 nM in assay [1] and 66 nM in assay [2].

Consider `C[C@@H]1CN(c2ccc(C#N)c3ncccc23)C[C@H](COCC2CCCCC2)O1` [ER-885930], for which the IC50 in assay [2] worked out at 147 nM.

Take `CC1CN(c2ccc(C#N)c3ncccc23)CC(CNC2CCCC2O)O1` (mixture of isomers) [ER-887528]: the IC50 in assay [1] was 56 nM; in assay [2], 135 nM.

For the molecule `CC1CN(c2ccc(C#N)c3ncccc23)CC(CN2CCCC2C(C)C)O1` (mixture of isomers) [ER-886816], in assay [2], the IC50 was 107 nM.

In the case of `C[C@@H]1CN(c2ccc(C#N)c3ncccc23)C[C@H](C(=O)C2CCCCC2)O1` [ER-886626], the IC50 was 80 nM in assay [1] and 5 nM in assay [2].

Take `C[C@@H]1CN(c2ccc(C#N)c3ncccc23)C[C@H](COCc2ccccc2)O1` [ER-885618, 5-((2R,6R)-2-((benzyloxy)methyl)-6-methylmorpholino)quinoline-8-carbonitrile]: the IC50 was determined as 23 nM in assay [1] and 5 nM in assay [2].

In the case of `C[C@@H]1CN(c2ccc(C#N)c3ncccc23)C[C@H](CCl)O1` [ER-885906], the IC50 worked out at 33 nM in assay [1] and 20 nM in assay [2].

`CC1CCC(C)N1C[C@H]1CN(c2ccc(C#N)c3ncccc23)C[C@@H](C)O1` (some centres unmarked) [ER-886857]: the IC50 was 98 nM in assay [1] and 72 nM in assay [2].

For `C[C@@H]1CN(c2ccc(C#N)c3ncccc23)C[C@H](CNc2ncccc2-c2ccccc2)O1` [ER-887540], the values for the IC50 in assay [1] and in assay [2] were 1 nM and 3 nM, respectively.

For the molecule `C[C@@H]1CN(c2ccc(C#N)c3ncccc23)C[C@H](CN2CCC[C@@H](N)C2)O1` [ER-887928], the IC50 in assay [2] was 11 nM.

In the case of `N#Cc1ccc(N2CCOC(CCl)C2)c2cccnc12` (centres unmarked) [ER-879484], in assay [2], the IC50 came out at 18 nM.

For `C[C@@H]1CN(c2ccc(C#N)c3ncccc23)C[C@H](CNc2cccnc2)O1` [ER-887138], the results for the IC50 in assay [1] and in assay [2] were 4 nM and 13 nM, respectively.

In the case of `C[C@H]1CN(c2ccc(C#N)c3ncccc23)C[C@H](C)O1` [ER-880191], the IC50 in assay [2] was found to be 10 nM.

`CCC(=O)[C@H]1CN(c2ccc(C#N)c3ncccc23)C[C@@H](C)O1` [ER-886625]: the IC50 is 91 nM in assay [1] and 10 nM in assay [2].

Take `C[C@@H]1CN(c2ccc(C#N)c3ncccc23)C[C@H](CNC2CCC2)O1` [ER-887443]: the IC50 stood at 32 nM in assay [1] and 138 nM in assay [2].

In the case of `C[C@@H]1CN(c2ccc(C#N)c3ncccc23)C[C@H](CN2CCN(c3ccccc3)CC2)O1` [ER-887258], the results for the IC50 in assay [1] and in assay [2] were 55 nM and 175 nM, respectively.

For the molecule `CC1CN(c2ccc(C#N)c3ncccc23)CC(C(O)CCc2ccccc2)O1` (single isomer, unassigned) [ER-886567], the IC50 came out at 22 nM in assay [1] and 5 nM in assay [2].

For the molecule `C[C@@H]1CN(c2ccc(C#N)c3ncccc23)C[C@H](COc2ccccc2)O1` [ER-886514], in assay [2], the IC50 worked out at 5 nM.

As to `C[C@@H]1CN(c2ccc(C#N)c3ncccc23)C[C@H](CN2CC[C@@H](c3ccccc3)C2)O1` [ER-886818], the IC50 in assay [2] is 81 nM.

Regarding `CC1CN(c2ccc(C#N)c3ncccc23)CC(C(O)C2CCCCC2)O1` (single isomer, unassigned) [ER-886532], the IC50 in assay [2] was found to be 30 nM.

For `CC(C)COC[C@H]1CN(c2ccc(C#N)c3ncccc23)C[C@@H](C)O1` [ER-885892], the IC50 in assay [2] worked out at 37 nM.

`C=CC(O)[C@H]1CN(c2ccc(C#N)c3ncccc23)C[C@@H](C)O1` (single isomer, unassigned) [ER-886431]: the IC50 in assay [2] worked out at 31 nM.
